In patent US10550110B2, “Tetrahydroquinoline sulfonamide derivatives as inverse agonists of retinoid-related orphan receptor gamma (ROR gamma (t))” (GALDERMA RESEARCH & DEVELOPMENT, priority 2014, dated 2020):

Target: T1, ROR gamma ligand-binding domain (LBD) (hRORg) (Homo sapiens, UniProt P51449)
T1 construct: expressed in transfected cells; host or cells: HG5LN (HeLa line with GAL4-responsive luciferase reporter)
T1 sequence (P51449 269-508 limits assumed): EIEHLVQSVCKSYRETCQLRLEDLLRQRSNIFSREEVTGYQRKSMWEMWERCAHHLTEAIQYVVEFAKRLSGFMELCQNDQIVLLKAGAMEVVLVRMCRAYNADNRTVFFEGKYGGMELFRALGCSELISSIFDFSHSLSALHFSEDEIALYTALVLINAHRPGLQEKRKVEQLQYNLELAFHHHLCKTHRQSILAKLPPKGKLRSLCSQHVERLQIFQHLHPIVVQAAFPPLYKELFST
Experiment: GAL4-RORγ transactivation (luciferase reporter, HG5LN HeLa line)
Assay type: cell-based
Conditions: HG5LN HeLa line with GAL4 DBD fused to ROR gamma LBD, 18 hours incubation
Description: GAL4—RORγ Transactivation
The RORγ transactivation model was developed from the line HG5LN, which is a HeLa line that stably expresses a luciferase reporter gene controlled by a pentamer of the GAL4 recognition domain of yeast and of a β-globin promoter. The HG5LN line was stably transfected by the DNA-binding domain (DBD) of GAL4 fused to the ROR gamma ligand-binding domain (LBD). Molecules that inhibit the ROR gamma constitutive activity reduce the luciferase expression, thus leading to a reduction in the emitted luminescence.
The cells are seeded in 384-well plates (5000 cells in 45 μL/well of culture medium containing 10% fetal calf serum) and incubated for 4 hours at 37° C., 5% CO2. 5 μL of the test molecules (compounds described in the tables described above) are then added to each well and the plates are incubated for 18 hours at a temperature of 37° C. under 5% of CO2. 20 μL of luciferase substrate (Promega) are added to each well and the luminescence emitted is read by a microplate reader.
The luminescence units (“RLU”) are normalized by positive controls (“POS” containing a saturated concentration of N-(2,2,2-trifluoroethyl)-N-[4-[2,2,2-trifluoro-1-hydroxy-1-(trifluoromethyl)ethyl]phenyl])benzenesulfonamide and negative controls (“NEG” containing DMSO): % inhibition=((RLU-NEG)*100)/(POS-NEG). The IC50 values are calculated from a 4-parameter logistic model using the XLFit software (IDBS).

Row | SMILES | IC50 [nM]
1 | CCc1ccc(N(CC(C)C)S(=O)(=O)c2ccc3c(c2)C(O)CCN3C2CCNC(=O)C2)cc1 (single isomer, unassigned) [Compound 52, 4-hydroxy-1-(2-oxopiperidin-4-yl)-1,2,3,4-tetrahydroquinoline-6-sulfonic acid (4-ethylphenyl)isobutylamide] | > 1000
2 | CCc1ccc(N(CC(C)C)S(=O)(=O)c2ccc3c(c2)C(O)CCN3C2CCNC(=O)C2)cc1 (single isomer, unassigned) [Compound 53, 4-hydroxy-1-(2-oxopiperidin-4-yl)-1,2,3,4-tetrahydroquinoline-6-sulfonic acid (4-ethylphenyl)isobutylamide] | > 1000
3 | CCc1ccc(N(CC(C)C)S(=O)(=O)c2ccc3c(c2)C(=O)CCN3CC2CCC(=O)N2)cc1 (stereo not drawn) [Compound 3, 4-oxo-1-(5-oxopyrrolidin-2-ylmethyl)-1,2,3,4-tetrahydroquinoline-6-sulfonic acid (4-ethylphenyl)isobutylamide] | > 1000
4 | CCc1ccc(N(CC(C)C)S(=O)(=O)c2ccc3c(c2)C(=O)CCN3CC2CCN(C(=O)OC(C)(C)C)CC2)cc1 [Compound 5, tert-butyl ester of 4-{6-[(4-ethylphenyl)isobutylsulfamoyl]-4-oxo-3,4-dihydro-2H-quinolin-1-ylmethyl}piperidine-1-carboxylic acid] | > 1000
5 | CCc1ccc(N(CC(C)C)S(=O)(=O)c2ccc3c(c2)C(=O)CCN3CC2(C)CCOCC2)cc1 [Compound 6, 1-(4-methyltetrahydropyran-4-ylmethyl)-4-oxo-1,2,3,4-tetrahydroquinoline-6-sulfonic acid (4-ethylphenyl)isobutylamide] | 100 to 1000
6 | CCc1ccc(N(CC(C)C)S(=O)(=O)c2ccc3c(c2)C(=O)CCN3CC2CCS(=O)(=O)CC2)cc1 [Compound 7, 1-(1,1-dioxohexahydro-1λ^6-thiopyran-4-ylmethyl)-4-oxo-1,2,3,4-tetrahydroquinoline-6-sulfonic acid (4-ethylphenyl)isobutylamide] | > 1000
7 | CCc1ccc(N(CC(C)C)S(=O)(=O)c2ccc3c(c2)C(=O)CCN3Cc2ccc(C(=O)NO)cc2)cc1 [Compound 8, 4-{6-[(4-ethylphenyl)isobutylsulfamoyl]-4-oxo-3,4-dihydro-2H-quinolin-1-ylmethyl}-N-hydroxybenzamide] | > 1000
8 | CCc1ccc(N(CC(C)C)S(=O)(=O)c2ccc3c(c2)C(O)CCN3CC2CCN(C(=O)OC(C)(C)C)CC2)cc1 (stereo not drawn) [Compound 12, tert-butyl ester of 4-{6-[(4-ethylphenyl)isobutylsulfamoyl]-4-hydroxy-3,4-dihydro-2H-quinolin-1-ylmethyl}piperidine-1-carboxylic acid] | > 1000
9 | CCc1ccc(N(CC(C)C)S(=O)(=O)c2ccc3c(c2)C(O)CCN3C2CCN(C(=O)OC(C)(C)C)CC2)cc1 (stereo not drawn) [Compound 13, tert-butyl ester of 4-{6-[(4-ethylphenyl)isobutylsulfamoyl]-4-hydroxy-3,4-dihydro-2H-quinolin-1-yl}piperidine-1-carboxylic acid] | > 1000
10 | CCc1ccc(N(CC(C)C)S(=O)(=O)c2ccc3c(c2)C(O)CCN3CC2(O)CCOCC2)cc1 (stereo not drawn) [Compound 16, 4-hydroxy-1-(4-hydroxytetrahydropyran-4-ylmethyl)-1,2,3,4-tetrahydroquinoline-6-sulfonic acid (4-ethylphenyl)isobutylamide] | > 1000
11 | CCc1ccc(N(CC(C)C)S(=O)(=O)c2ccc3c(c2)C(O)CCN3CC2CCS(=O)(=O)CC2)cc1 (stereo not drawn) [Compound 17, 1-(1,1-dioxohexahydro-1λ^6-thiopyran-4-ylmethyl)-4-hydroxy-1,2,3,4-tetrahydroquinoline-6-sulfonic acid (4-ethylphenyl)isobutylamide] | > 1000
12 | CCc1ccc(N(CC(C)C)S(=O)(=O)c2ccc3c(c2)C(O)CCN3Cc2ccncn2)cc1 (stereo not drawn) [Compound 21, 4-hydroxy-1-pyrimidin-4-ylmethyl-1,2,3,4-tetrahydroquinoline-6-sulfonic acid (4-ethylphenyl)isobutylamide] | < 100
13 | CCc1ccc(N(CC(C)C)S(=O)(=O)c2ccc3c(c2)C(O)CCN3C2CCS(=O)(=O)CC2)cc1 (stereo not drawn) [Compound 27, 1-(1,1-dioxohexahydro-1λ^6-thiopyran-4-yl)-4-hydroxy-1,2,3,4-tetrahydroquinoline-6-sulfonic acid (4-ethylphenyl)isobutylamide] | 100 to 1000
14 | CCc1ccc(N(CC(C)C)S(=O)(=O)c2ccc3c(c2)C(O)CCN3C2CCS(=O)(=O)C2)cc1 (stereo not drawn) [Compound 28, 1-(1,1-dioxotetrahydro-1λ^6-thiophen-3-yl)-4-hydroxy-1,2,3,4-tetrahydroquinoline-6-sulfonic acid (4-ethylphenyl)isobutylamide] | 100 to 1000
15 | CCc1ccc(N(CC(C)C)S(=O)(=O)c2ccc3c(c2)C(O)CCN3Cc2cnoc2C)cc1 (stereo not drawn) [Compound 30, 4-hydroxy-1-(5-methylisoxazol-4-ylmethyl)-1,2,3,4-tetrahydroquinoline-6-sulfonic acid (4-ethylphenyl)isobutylamide] | 100 to 1000
16 | CCc1ccc(N(CC(C)C)S(=O)(=O)c2ccc3c(c2)C(O)CCN3Cc2c(C)noc2C)cc1 (stereo not drawn) [Compound 31, 1-(3,5-dimethylisoxazol-4-ylmethyl)-4-hydroxy-1,2,3,4-tetrahydroquinoline-6-sulfonic acid (4-ethylphenyl)isobutylamide] | 100 to 1000
17 | CCc1ccc(N(CC(C)C)S(=O)(=O)c2ccc3c(c2)C(O)CCN3Cc2nonc2C)cc1 (stereo not drawn) [Compound 32, 4-hydroxy-1-(4-methylfurazan-3-ylmethyl)-1,2,3,4-tetrahydroquinoline-6-sulfonic acid (4-ethylphenyl)isobutylamide] | 100 to 1000

Further lines, results first:

Row | IC50 [nM] | SMILES
18 | 100 to 1000 | CCc1ccc(N(CC(C)C)S(=O)(=O)c2ccc3c(c2)C(O)CCN3CC2CCC(O)CC2)cc1 (single isomer, unassigned) [Compound 42, 4-hydroxy-1-(4-hydroxycyclohexylmethyl)-1,2,3,4-tetrahydroquinoline-6-sulfonic acid (4-ethylphenyl)isobutylamide]
19 | 100 to 1000 | CCc1ccc(N(CC(C)C)S(=O)(=O)c2ccc3c(c2)C(O)CCN3CC2CCC(O)CC2)cc1 (single isomer, unassigned) [Compound 43, 4-hydroxy-1-(4-hydroxycyclohexylmethyl)-1,2,3,4-tetrahydroquinoline-6-sulfonic acid (4-ethylphenyl)isobutylamide]
20 | 100 to 1000 | CCc1ccc(N(CC(C)C)S(=O)(=O)c2ccc3c(c2)C(O)CCN3CC2CCC(=O)N2)cc1 (stereo not drawn) [Compound 9, 4-hydroxy-1-(5-oxopyrrolidin-2-ylmethyl)-1,2,3,4-tetrahydroquinoline-6-sulfonic acid (4-ethylphenyl)isobutylamide]
21 | 100 to 1000 | CCc1ccc(N(CC(C)C)S(=O)(=O)c2ccc3c(c2)C(O)CCN3CC2COC2)cc1 (stereo not drawn) [Compound 18, 4-hydroxy-1-oxetan-3-ylmethyl-1,2,3,4-tetrahydroquinoline-6-sulfonic acid (4-ethylphenyl)isobutylamide]
22 | 100 to 1000 | CCc1ccc(N(CC(C)C)S(=O)(=O)c2ccc3c(c2)C(O)CCN3CC2CCS(=O)(=O)C2)cc1 (stereo not drawn) [Compound 22, 1-(1,1-dioxotetrahydro-1λ^6-thiophen-3-ylmethyl)-4-hydroxy-1,2,3,4-tetrahydroquinoline-6-sulfonic acid (4-ethylphenyl)isobutylamide]
23 | 100 to 1000 | CCc1ccc(N(CC(C)C)S(=O)(=O)c2ccc3c(c2)C(O)CCN3CC2CNC(=O)O2)cc1 (stereo not drawn) [Compound 23, 4-hydroxy-1-(2-oxooxazolidin-5-ylmethyl)-1,2,3,4-tetrahydroquinoline-6-sulfonic acid (4-ethylphenyl)isobutylamide]
24 | 100 to 1000 | CCc1ccc(N(CC(C)C)S(=O)(=O)c2ccc3c(c2)C(O)CCN3CC2CCC(=O)NC2)cc1 (stereo not drawn) [Compound 24, 4-hydroxy-1-(6-oxopiperidin-3-ylmethyl)-1,2,3,4-tetrahydroquinoline-6-sulfonic acid (4-ethylphenyl)isobutylamide]
25 | > 1000 | CCc1ccc(N(CC(C)C)S(=O)(=O)c2ccc3c(c2)C(O)CCN3CC2CCNC(=O)C2)cc1 (stereo not drawn) [Compound 25, 4-hydroxy-1-(2-oxopiperidin-4-ylmethyl)-1,2,3,4-tetrahydroquinoline-6-sulfonic acid (4-ethylphenyl)isobutylamide]
26 | 100 to 1000 | CCc1ccc(N(CC(C)C)S(=O)(=O)c2ccc3c(c2)C(O)CCN3CC2CNC(=O)C2)cc1 (stereo not drawn) [Compound 26, 4-hydroxy-1-(5-oxopyrrolidin-3-ylmethyl)-1,2,3,4-tetrahydroquinoline-6-sulfonic acid (4-ethylphenyl)isobutylamide]
27 | > 1000 | CCc1ccc(N(CC(C)C)S(=O)(=O)c2ccc3c(c2)C(O)CCN3CC2CCC(F)(F)CC2)cc1 (stereo not drawn) [Compound 33, 1-(4,4-difluorocyclohexylmethyl)-4-hydroxy-1,2,3,4-tetrahydroquinoline-6-sulfonic acid (4-ethylphenyl)isobutylamide]
